Values quoted from earlier work, collected in US20070053968A1 (Wyeth, priority 2005, published 2007).

Key:
[1] = target: H1-histaminergic receptors (Homo sapiens, UniProt P35367)
dopamine re-uptake = dopamine re-uptake (Homo sapiens, UniProt Q01959)
[2] = versus venlafaxine
[3] = target: neuronal norepinephrine re-uptake (Homo sapiens, UniProt P23975)
[4] = compared with ODV free base
[5] = compared with ODV free base; remark: listed apart in the source
[6] = oral administration, versus venlafaxine, ODV or other salts of ODV

dopamine re-uptake, sequence (Q01959 whole entry): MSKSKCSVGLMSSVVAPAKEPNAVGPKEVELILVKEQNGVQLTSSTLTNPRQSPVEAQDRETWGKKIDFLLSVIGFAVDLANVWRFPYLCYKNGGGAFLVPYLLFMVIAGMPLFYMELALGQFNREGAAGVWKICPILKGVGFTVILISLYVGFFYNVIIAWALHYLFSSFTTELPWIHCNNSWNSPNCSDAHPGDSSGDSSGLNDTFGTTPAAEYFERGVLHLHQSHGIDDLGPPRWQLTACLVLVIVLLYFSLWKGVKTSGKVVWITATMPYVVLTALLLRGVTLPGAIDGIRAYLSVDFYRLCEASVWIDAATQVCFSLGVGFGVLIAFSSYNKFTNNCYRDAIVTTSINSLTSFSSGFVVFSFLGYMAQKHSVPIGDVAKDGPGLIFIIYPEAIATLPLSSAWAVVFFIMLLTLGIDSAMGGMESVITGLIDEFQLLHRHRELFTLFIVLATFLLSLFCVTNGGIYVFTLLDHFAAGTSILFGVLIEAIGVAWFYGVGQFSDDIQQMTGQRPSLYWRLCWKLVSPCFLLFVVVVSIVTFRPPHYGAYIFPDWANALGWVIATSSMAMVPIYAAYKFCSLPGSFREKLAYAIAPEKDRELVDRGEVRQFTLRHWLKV
neuronal norepinephrine re-uptake, sequence (P23975 whole entry): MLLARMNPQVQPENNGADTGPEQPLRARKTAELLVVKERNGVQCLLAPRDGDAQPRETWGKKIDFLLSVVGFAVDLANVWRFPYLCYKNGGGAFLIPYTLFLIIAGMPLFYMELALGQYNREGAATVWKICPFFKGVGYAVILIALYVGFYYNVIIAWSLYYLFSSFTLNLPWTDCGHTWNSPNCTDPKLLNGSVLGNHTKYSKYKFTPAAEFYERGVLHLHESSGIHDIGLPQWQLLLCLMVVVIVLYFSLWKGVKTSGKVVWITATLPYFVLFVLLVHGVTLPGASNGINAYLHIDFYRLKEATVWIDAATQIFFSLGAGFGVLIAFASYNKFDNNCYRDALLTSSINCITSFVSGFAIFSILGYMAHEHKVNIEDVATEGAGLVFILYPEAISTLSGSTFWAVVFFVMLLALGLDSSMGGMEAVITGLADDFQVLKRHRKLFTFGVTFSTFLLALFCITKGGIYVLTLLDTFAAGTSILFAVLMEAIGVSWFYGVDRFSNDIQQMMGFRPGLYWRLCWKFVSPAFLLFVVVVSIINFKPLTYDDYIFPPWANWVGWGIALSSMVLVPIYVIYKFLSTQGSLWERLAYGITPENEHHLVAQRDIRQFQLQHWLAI
H1-histaminergic receptors, sequence (P35367 whole entry): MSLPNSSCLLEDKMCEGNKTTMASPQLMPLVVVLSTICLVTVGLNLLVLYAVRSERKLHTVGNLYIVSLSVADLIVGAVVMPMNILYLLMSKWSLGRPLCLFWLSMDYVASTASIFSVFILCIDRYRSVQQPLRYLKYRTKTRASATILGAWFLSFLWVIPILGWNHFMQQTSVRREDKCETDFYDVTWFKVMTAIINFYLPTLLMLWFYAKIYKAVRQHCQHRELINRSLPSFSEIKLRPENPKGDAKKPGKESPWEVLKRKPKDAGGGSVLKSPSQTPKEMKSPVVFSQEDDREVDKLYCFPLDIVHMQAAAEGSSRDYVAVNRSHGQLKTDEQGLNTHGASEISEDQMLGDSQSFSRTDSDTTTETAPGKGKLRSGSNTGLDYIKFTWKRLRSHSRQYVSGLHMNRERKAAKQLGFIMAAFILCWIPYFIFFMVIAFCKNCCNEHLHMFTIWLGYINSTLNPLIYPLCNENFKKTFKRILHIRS

Compound | affinity for H1-histaminergic receptors [1] | inhibition of dopamine re-uptake (dopamine re-uptake) | affinity for α1-adrenergic receptors (α1-adrenergic receptors) | affinity for muscarinic receptors (muscarinic receptors) | solubility compared with venlafaxine [2] | inhibition of neuronal norepinephrine re-uptake [3] | permeability [4] | bioavailability [5] | incidence of nausea, vomiting, diarrhea, abdominal pain, headache, vaso-vagal malaise, and/or trismus [6]
CN(C)CC(c1ccc(O)cc1)C1(O)CCCCC1 (centres unmarked) [ODV] | no significant affinity | weak inhibitors | no significant affinity | no significant affinity | more soluble | – | – | – | –
COc1ccc(C(CN(C)C)C2(O)CCCCC2)cc1 (racemic) [venlafaxine, (±)-1-[2-(dimethylamino)-1-(4-methoxyphenyl)ethyl]-cyclohexanol] | – | weak inhibitors | no significant affinity | – | – | potent inhibitors | – | – | –
CN(C)CC(c1ccc(O)cc1)C1(O)CCCCC1.O=C(O)CCC(=O)O (centres unmarked) [ODV succinate] | – | – | – | – | – | – | improved | improved | lower incidence
